{"source": "patent US20240417395A1", "about": "“DUAL ANTAGONIST AND USE THEREOF” (NICOYA THERAPEUTICS (SHANGHAI) CO., LTD, priority 2021, published 2024)", "key": {"CYP1A2": {"target": "CYP1A2 (Homo sapiens (Human), UniProt P05177)", "sequence (P05177 whole entry)": "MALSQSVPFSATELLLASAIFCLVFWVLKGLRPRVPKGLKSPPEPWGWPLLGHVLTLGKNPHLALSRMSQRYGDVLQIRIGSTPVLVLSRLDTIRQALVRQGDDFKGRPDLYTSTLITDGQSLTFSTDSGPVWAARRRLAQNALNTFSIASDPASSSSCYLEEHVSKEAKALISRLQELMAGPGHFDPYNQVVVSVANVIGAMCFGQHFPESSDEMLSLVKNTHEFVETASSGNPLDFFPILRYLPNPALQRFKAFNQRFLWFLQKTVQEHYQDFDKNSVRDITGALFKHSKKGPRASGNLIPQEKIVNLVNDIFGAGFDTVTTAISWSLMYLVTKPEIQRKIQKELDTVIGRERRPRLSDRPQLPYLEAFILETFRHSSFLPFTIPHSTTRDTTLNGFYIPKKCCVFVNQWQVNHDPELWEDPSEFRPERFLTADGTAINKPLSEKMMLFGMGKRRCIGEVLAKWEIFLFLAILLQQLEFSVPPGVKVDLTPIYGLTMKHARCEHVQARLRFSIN", "experiment": "Inhibition of cytochrome P450 isozyme CYP1A2", "assay_type": "in vitro ADME", "conditions": "for IC50: recombinant enzyme", "procedure": "(§1) A total of six specific probe substrates of six isozymes of CYPs, i.e., α-Naphthoflavone (CYP1A2), Sulphaphenazole (CYP2C9), Ticlopidine (CYP2C19), Quinidine (CYP2D6), Ketoconazole (CYP3A4), and Montelukast (CYP2C8) were co-incubated with recombinant hepatic drug enzymes CYP1A2, CYP2C9, CYP2C19, CYP2D6, CYP3A4, and CYP2C8 and test compounds, respectively. Nicotinamide adenine dinucleotide phosphate (NADP+), D-glucose-6-phosphate (G6P) and glucose-6-phosphate dehydrogenase (G6DHP) were added to start the reaction. At the end of the reaction, the corresponding half maximal inhibitory concentrations (IC50) were calculated by the fluorescence detection method (Ex490 nm/Em520 nm)."}, "CYP2D6": {"target": "CYP2D6 (Homo sapiens (Human), UniProt P10635)", "sequence (P10635 whole entry)": "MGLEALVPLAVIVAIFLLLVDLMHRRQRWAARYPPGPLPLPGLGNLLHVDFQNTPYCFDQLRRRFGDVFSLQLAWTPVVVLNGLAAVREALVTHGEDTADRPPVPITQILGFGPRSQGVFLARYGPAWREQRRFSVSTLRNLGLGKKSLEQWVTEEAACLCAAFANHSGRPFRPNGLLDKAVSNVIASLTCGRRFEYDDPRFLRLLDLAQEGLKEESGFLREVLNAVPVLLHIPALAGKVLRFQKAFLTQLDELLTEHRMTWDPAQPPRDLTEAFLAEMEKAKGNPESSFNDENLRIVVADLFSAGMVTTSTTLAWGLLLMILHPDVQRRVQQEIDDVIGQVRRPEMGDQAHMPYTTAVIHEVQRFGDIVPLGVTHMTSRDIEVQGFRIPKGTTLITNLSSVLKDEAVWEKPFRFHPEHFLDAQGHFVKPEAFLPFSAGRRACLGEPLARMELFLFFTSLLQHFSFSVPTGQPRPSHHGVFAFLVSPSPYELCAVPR", "experiment": "Inhibition of cytochrome P450 isozyme CYP2D6", "assay_type": "in vitro ADME", "conditions": "for IC50: recombinant enzyme", "procedure": "as §1"}, "[1]": {"experiment": "Experiment on water solubility (HPLC-UV)", "assay_type": "physicochemical", "procedure": "The detection was carried out in accordance with the high performance liquid chromatography (General Principles 0512 of Chinese Pharmacopoeia Volume IV (2020)):\nChromatographic conditions for the HPLC-UV method: mobile phase: 0.02 M KH2PO4 aqueous solution-acetonitrile (90:10), gradient elution; chromatographic column: C18; detection wavelength: 210 nm. The water solubility was calculated based on the peak area by the external standard method."}, "AT1": {"target": "AT1 (Homo sapiens (Human), UniProt P30556)", "sequence (P30556 whole entry)": "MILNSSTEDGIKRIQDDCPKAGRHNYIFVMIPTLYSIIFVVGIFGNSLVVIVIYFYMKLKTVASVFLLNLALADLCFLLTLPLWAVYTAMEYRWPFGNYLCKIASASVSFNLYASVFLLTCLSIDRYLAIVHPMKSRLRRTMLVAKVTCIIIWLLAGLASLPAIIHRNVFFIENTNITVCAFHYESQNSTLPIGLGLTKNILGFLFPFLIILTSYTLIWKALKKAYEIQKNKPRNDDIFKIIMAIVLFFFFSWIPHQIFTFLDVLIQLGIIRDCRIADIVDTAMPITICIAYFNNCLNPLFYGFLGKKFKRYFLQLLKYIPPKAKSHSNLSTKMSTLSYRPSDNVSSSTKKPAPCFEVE", "experiment": "Calcium flux assay on AT1 cell line", "assay_type": "cell-based", "conditions": "AT1/HEK293, calcium flux, angiotensin II agonist", "procedure": "Test materials: a) cell line: AT1/HEK293; b) vehicles: F12, Invitrogen (Cat #11765-047); FBS, Corning (Cat #35-076-CV); Geneticin, Invitrogen (Cat #10131); c) reagent: Fluo-4 Direct, (Invitrogen, Cat #F10471); d) instruments: 384 well Poly-D-Lysine protein coating plate, Greiner #781946; Vi-cell XR Cell Viability Analyzer, Beckman Coulter; Incubator, Thermo.\nFor the agonist (angiotensin II) master plate, the agonist solution was diluted from 1 mM to 200 μM with the test buffer solution. […] Afterwards, 900 nL of each compound solution was transferred to the master plate and 30 μL of the test buffer solution was added. • a) The cell plate was removed from the incubator, and 20 μL of 2X Fluo-4 Direct was added by a pipette to a 384-well cell plate. • b) The cell plate was incubated at 37° C. for 50 min in the environment of 5% CO2, and then incubated at room temperature for 10 min. • c) The cell plate was removed from the incubator and placed in FLIPR. The compound plates and the tip box were placed in FLIPR. • d) Regarding the EC80 plate: • 1) Operations were conducted on […]. • 2) 10 μL of compound solution was transferred from the EC80 master plate to the cell plate. • 3) Fluorescence signals were read. • 4) The read signals were counted, and the EC80 value of each cell line was calculated using FLIPR. • 5) For the concentration of the compound plate, a solution having a concentration 6 times that of the reference agonist EC80 was formulated. • e) Regarding the compound plate: • 1) Operations were conducted on […]. • 2) 10 μL of compound was transferred to the cell plate. • 3) Fluorescence signals were read. • 4) 10 μL of solution having a concentration 6 times that of the reference agonist EC80 was transferred. • 5) Fluorescence signals were read. • f) Data analysis by Prism"}, "[2]": {"conditions": "fluorescence detection, read-out: IC50 CYP1A2"}, "[3]": {"conditions": "fluorescence detection, read-out: IC50 CYP2D6"}, "[4]": {"conditions": "read-out: IC50 activity against AT1 (class)"}}, "note": "Read-outs that look alike come from different tables or passages of the source.", "data": [{"smiles": "CCCCC1=NC2(CCCC2)C(=O)N1Cc1ccc(-c2ccccc2S(=O)(=O)Nc2noc(C)c2C)c(COCC)c1", "note": "[Sparsentan, reference compound]", "values": [{"measurement": "risk of inhibiting CYP1A2 activity (conclusion in words)", "setting": "CYP1A2; conclusion to Table 4", "value": "no risk of inhibiting"}, {"measurement": "IC50", "setting": "CYP1A2; [2]", "value": "> 10000", "unit": "nM"}, {"measurement": "risk of inhibiting CYP2D6 activity (conclusion in words)", "setting": "CYP2D6; conclusion to Table 4", "value": "no risk of inhibiting"}, {"measurement": "IC50", "setting": "CYP2D6; [3]", "value": "> 10000", "unit": "nM"}, {"measurement": "solubility", "setting": "[1]; aqueous medium at pH 7.4 (buffer not named), pH 7.4, aqueous buffer, pH7.4, read-out: Solubility pH7.4", "value": 210, "unit": "µg/mL"}, {"measurement": "solubility", "setting": "[1]; pH 1.6, fassgf or other biorelevant, FaSSGF (pH1.6), read-out: Solubility FaSSGF (pH1.6)", "value": 130, "unit": "µg/mL"}, {"measurement": "solubility", "setting": "[1]; pH 5, FeSSIF (pH5.0), read-out: Solubility FeSSIF (pH5.0)", "value": 20, "unit": "µg/mL"}, {"measurement": "solubility", "setting": "[1]; pH 6.5, FaSSIF (pH6.5), read-out: Solubility FaSSIF (pH6.5)", "value": 80, "unit": "µg/mL"}, {"measurement": "IC50", "setting": "AT1; read-out: IC50 against AT1", "value": 9.79, "unit": "nM"}]}, {"smiles": "CCCCC1=N[C@@]2(CC3C[C@H]3C2)C(=O)N1Cc1ccc(-c2ccccc2S(=O)(=O)Nc2noc(C)c2Cl)c(COCC)c1", "note": "(some centres unmarked) [Example 7]", "values": [{"measurement": "risk of inhibiting CYP1A2 activity (conclusion in words)", "setting": "CYP1A2; conclusion to Table 4", "value": "no risk of inhibiting"}, {"measurement": "IC50", "setting": "CYP1A2; [2]", "value": "> 10000", "unit": "nM"}, {"measurement": "risk of inhibiting CYP2D6 activity (conclusion in words)", "setting": "CYP2D6; conclusion to Table 4", "value": "no risk of inhibiting"}, {"measurement": "IC50", "setting": "CYP2D6; [3]", "value": "> 10000", "unit": "nM"}, {"measurement": "Solubility FaSSGF (pH1.6)", "setting": "[1]; FaSSGF (pH1.6)", "value": 0.24, "unit": "mg/mL"}, {"measurement": "Solubility FaSSIF (pH6.5)", "setting": "[1]; FaSSIF (pH6.5)", "value": 0.87, "unit": "mg/mL"}, {"measurement": "Solubility FeSSIF (pH5.0)", "setting": "[1]; FeSSIF (pH5.0)", "value": 0.08, "unit": "mg/mL"}, {"measurement": "Solubility pH7.4", "setting": "[1]; pH7.4", "value": 0.84, "unit": "mg/mL"}, {"measurement": "IC50", "setting": "AT1; [4]", "value": "1 to 10", "unit": "nM"}, {"measurement": "IC50", "setting": "AT1; read-out: IC50 against AT1", "value": 3.55, "unit": "nM"}]}, {"smiles": "CCCCC1=N[C@@]2(CC3C[C@H]3C2)C(=O)N1Cc1ccc(-c2ccccc2S(=O)(=O)Nc2noc(C)c2C)c(COCC)c1", "note": "(some centres unmarked) [Example 3]", "values": [{"measurement": "risk of inhibiting CYP1A2 activity (conclusion in words)", "setting": "CYP1A2", "value": "no risk of inhibiting"}, {"measurement": "IC50", "setting": "CYP1A2", "value": "> 10000", "unit": "nM"}, {"measurement": "risk of inhibiting CYP2D6 activity (conclusion in words)", "setting": "CYP2D6", "value": "no risk of inhibiting"}, {"measurement": "IC50", "setting": "CYP2D6", "value": "> 10000", "unit": "nM"}, {"measurement": "Solubility FaSSGF (pH1.6)", "setting": "[1]; FaSSGF (pH1.6)", "value": ">1", "unit": "mg/mL"}, {"measurement": "Solubility FaSSIF (pH6.5)", "setting": "[1]; FaSSIF (pH6.5)", "value": 0.19, "unit": "mg/mL"}, {"measurement": "Solubility FeSSIF (pH5.0)", "setting": "[1]; FeSSIF (pH5.0)", "value": 0.06, "unit": "mg/mL"}, {"measurement": "Solubility pH7.4", "setting": "[1]; pH7.4", "value": 0.82, "unit": "mg/mL"}, {"measurement": "IC50", "setting": "AT1; [4]", "value": "1 to 10", "unit": "nM"}, {"measurement": "IC50", "setting": "AT1; read-out: IC50 against AT1", "value": 1.97, "unit": "nM"}]}]}
